Measurements reported in EP4380572B1, “FORMULATION FOR SUBSTITUTED 2-AMINOTHIAZOLES IN THE TREATMENT OF FUNGAL AND FUNGAL-BACTERIAL INFECTIONS OF THE NAIL” (OnychoPharm GmbH, priority 2021, dated 2023).

What was measured:
[1] = cited from earlier work; for stability of the crystalline form: anhydrate polymorphic crystalline forms described in EP 0 718 296 A1
[2] = Solubility of abafungin in different solvents (saturated solution, UV at 302 nm); type: physicochemical; details: shaken 24 h, 19°C
Protocol: 2 ml of solvent were placed in a glass vial containing abafungin powder. The vial was mechanically shaken for 24 h in an environment with controlled temperature (19°C). Thereafter the content of the vials was transferred into Eppendorf tubes and centrifuged at 13000 rpm for 3 min. The supernatant (saturated solution) was collected and assayed using a UV spectrometer at 302 nm (λmax of abafungin). […] Drug concentration in the saturated solution (or diluted solution) was then determined using a standard curve (Table 2). Each experiment was conducted in triplicates. […]

Structure (SMILES)	stability at high humidity ([1]; 85% relative humidity, over months)	stability of the crystalline form [1]	Solubility mg/100 ml mean ± standard deviation ([2]; solvent 1,2-propanediol) [mg/100 ml]	Solubility mg/100 ml mean ± standard deviation ([2]; solvent DMSO) [mg/100 ml]	Solubility mg/100 ml mean ± standard deviation ([2]; solvent N-methyl pyrrolidone) [mg/100 ml]	Solubility mg/100 ml mean ± standard deviation ([2]; solvent PEG600) [mg/100 ml]	Solubility mg/100 ml mean ± standard deviation ([2]; solvent butyl acetate) [mg/100 ml]	Solubility mg/100 ml mean ± standard deviation ([2]; solvent ethanol) [mg/100 ml]	Solubility mg/100 ml mean ± standard deviation ([2]; solvent ethyl acetate) [mg/100 ml]	Solubility mg/100 ml mean ± standard deviation ([2]; solvent isopropanol myristate) [mg/100 ml]	Solubility mg/100 ml mean ± standard deviation ([2]; solvent isopropanol) [mg/100 ml]	Solubility mg/100 ml mean ± standard deviation ([2]; solvent water) [mg/100 ml]
Cc1ccc(Oc2ccccc2-c2csc(N=C3NCCCN3)n2)c(C)c1 [modification 2]	stable	photochemically and thermodynamically more stable										
Cc1ccc(Oc2ccccc2-c2csc(N=C3NCCCN3)n2)c(C)c1 [abafungin, 4-[2-(2,4-dimethylphenoxy)phenyl]-N-(1,4,5,6-tetrahydropyrimidin-2-yl)-1,3-thiazol-2-amine]			219.93 ± 12.10	4483.42 ± 16.30	27678.92 ± 434.07	5029.70 ± 12.70	822.13 ± 2.55	238.46 ± 2.72	803.75 ± 35.51	50.60 ± 4.30	156.14 ± 16.5	< 0.032
Cc1ccc(Oc2ccccc2-c2csc(N=C3NCCCN3)n2)c(C)c1 [modification 1]		metastable										
